Measurements reported in ChEMBL document CHEMBL1649226, “Species identification and antifungal susceptibility patterns of species belonging to Aspergillus section Nigri” (2009).
In brackets after ≈: the same amount, converted by molar mass.

Columns and labels:
Type in all cases: functional
[1] = tested on: Aspergillus tubingensis; experiment: Antifungal activity against Aspergillus tubingensis isolate CM-3585 after 48 hrs by EUCAST broth dilution method; conditions: isolate CM-3585, 48 h
[2] = tested on: Aspergillus niger; experiment: Antifungal activity against Aspergillus niger isolate CM-3506 obtained from respiratory tract infection of patient after 48 hrs by EUCAST broth dilution method; conditions: isolate CM-3506, 48 h
[3] = tested on: Aspergillus niger; experiment: Antifungal activity against Aspergillus niger isolate CM-3236 obtained from respiratory tract infection of patient after 48 hrs by EUCAST broth dilution method; conditions: isolate CM-3236, 48 h
[4] = tested on: Aspergillus tubingensis; experiment: Antifungal activity against Aspergillus tubingensis isolate CM-4001 after 48 hrs by EUCAST broth dilution method; conditions: isolate CM-4001, 48 h
[5] = tested on: Aspergillus niger; experiment: Antifungal activity against Aspergillus niger isolate CM-3257 obtained from respiratory tract infection of patient after 48 hrs by EUCAST broth dilution method; conditions: isolate CM-3257, 48 h
[6] = tested on: Aspergillus niger; experiment: Antifungal activity against Aspergillus niger isolate CM-3672 obtained from cutaneous layer of patient after 48 hrs by EUCAST broth dilution method; conditions: isolate CM-3672, 48 h
[7] = tested on: Aspergillus tubingensis; experiment: Antifungal activity against Aspergillus tubingensis isolate CM-4897 obtained from blood culture after 48 hrs by EUCAST broth dilution method; conditions: isolate CM-4897, 48 h
[8] = tested on: Aspergillus foetidus; experiment: Antifungal activity against Aspergillus foetidus isolate CM-4002 after 48 hrs by EUCAST broth dilution method; conditions: isolate CM-4002, 48 h
[9] = tested on: Aspergillus niger; experiment: Antifungal activity against Aspergillus niger isolate CM-5095 obtained from respiratory tract infection of patient after 48 hrs by EUCAST broth dilution method; conditions: isolate CM-5095, 48 h
[10] = tested on: Aspergillus tubingensis; experiment: Antifungal activity against Aspergillus tubingensis isolate CM-4003 after 48 hrs by EUCAST broth dilution method; conditions: isolate CM-4003, 48 h
[11] = tested on: Aspergillus tubingensis; experiment: Antifungal activity against Aspergillus tubingensis isolate CM-4005 after 48 hrs by EUCAST broth dilution method; conditions: isolate CM-4005, 48 h
[12] = tested on: Aspergillus niger; experiment: Antifungal activity against Aspergillus niger isolate CM-3551 obtained from respiratory tract infection of patient after 48 hrs by EUCAST broth dilution method; conditions: isolate CM-3551, 48 h
[13] = tested on: Aspergillus tubingensis; experiment: Antifungal activity against Aspergillus tubingensis isolate CM-3654 obtained from blood culture after 48 hrs by EUCAST broth dilution method; conditions: isolate CM-3654, 48 h
[14] = tested on: Aspergillus niger; experiment: Antifungal activity against Aspergillus niger isolate CM-4262 after 48 hrs by EUCAST broth dilution method Ophthalmic; conditions: isolate CM-4262, 48 h
[15] = tested on: Aspergillus tubingensis; experiment: Antifungal activity against Aspergillus tubingensis isolate CM-3125 obtained from respiratory tract infection of patient after 48 hrs by EUCAST broth dilution method; conditions: isolate CM-3125, 48 h
[16] = tested on: Aspergillus tubingensis; experiment: Antifungal activity against Aspergillus tubingensis isolate CM-3810 obtained from respiratory tract infection of patient after 48 hrs by EUCAST broth dilution method; conditions: isolate CM-3810, 48 h
[17] = tested on: Aspergillus niger; experiment: Antifungal activity against Aspergillus niger isolate CM-4004 obtained from after 48 hrs by EUCAST broth dilution method; conditions: isolate CM-4004, 48 h
[18] = tested on: Aspergillus niger; experiment: Antifungal activity against Aspergillus niger isolate CM-3641 obtained from respiratory tract infection of patient after 48 hrs by EUCAST broth dilution method; conditions: isolate CM-3641, 48 h
[19] = tested on: Aspergillus tubingensis; experiment: Antifungal activity against Aspergillus tubingensis isolate CM-3177 obtained from respiratory tract infection of patient after 48 hrs by EUCAST broth dilution method; conditions: isolate CM-3177, 48 h
[20] = tested on: Aspergillus niger; experiment: Antifungal activity against Aspergillus niger isolate CM-3636 obtained from respiratory tract infection of patient after 48 hrs by EUCAST broth dilution method; conditions: isolate CM-3636, 48 h
[21] = tested on: Aspergillus niger; experiment: Antifungal activity against Aspergillus niger isolate CM-4316 obtained from respiratory tract infection of patient after 48 hrs by EUCAST broth dilution method; conditions: isolate CM-4316, 48 h
[22] = tested on: Aspergillus tubingensis; experiment: Antifungal activity against Aspergillus tubingensis isolate CM-4296 obtained from respiratory tract infection of patient after 48 hrs by EUCAST broth dilution method; conditions: isolate CM-4296, 48 h
[23] = tested on: Aspergillus tubingensis; experiment: Antifungal activity against Aspergillus tubingensis isolate CM-4000 after 48 hrs by EUCAST broth dilution method; conditions: isolate CM-4000, 48 h
[24] = tested on: Aspergillus tubingensis; experiment: Antifungal activity against Aspergillus tubingensis isolate CM-4688 obtained from respiratory tract infection of patient after 48 hrs by EUCAST broth dilution method; conditions: isolate CM-4688, 48 h
[25] = tested on: Aspergillus foetidus; experiment: Antifungal activity against Aspergillus foetidus isolate CM-5264 obtained from respiratory tract infection of patient after 48 hrs by EUCAST broth dilution method; conditions: isolate CM-5264, 48 h
[26] = tested on: Aspergillus tubingensis; experiment: Antifungal activity against Aspergillus tubingensis isolate CM-3507 obtained from respiratory tract infection of patient after 48 hrs by EUCAST broth dilution method; conditions: isolate CM-3507, 48 h
[27] = tested on: Aspergillus tubingensis; experiment: Antifungal activity against Aspergillus tubingensis isolate CM-4264 obtained from blood culture after 48 hrs by EUCAST broth dilution method; conditions: isolate CM-4264, 48 h
[28] = tested on: Aspergillus tubingensis; experiment: Antifungal activity against Aspergillus tubingensis isolate CM-4352 obtained from respiratory tract infection of patient after 48 hrs by EUCAST broth dilution method; conditions: isolate CM-4352, 48 h
[29] = tested on: Aspergillus niger; experiment: Antifungal activity against Aspergillus niger isolate CM-3586 obtained from catheter of patient after 48 hrs by EUCAST broth dilution method; conditions: isolate CM-3586, 48 h
[30] = tested on: Aspergillus tubingensis; experiment: Antifungal activity against Aspergillus tubingensis isolate CM-3123 obtained from respiratory tract infection of patient after 48 hrs by EUCAST broth dilution method; conditions: isolate CM-3123, 48 h
[31] = tested on: Aspergillus tubingensis; experiment: Antifungal activity against Aspergillus tubingensis isolate CM-5094 obtained from respiratory tract infection of patient after 48 hrs by EUCAST broth dilution method; conditions: isolate CM-5094, 48 h
[32] = tested on: Aspergillus niger; experiment: Antifungal activity against Aspergillus niger isolate CM-4213 obtained from respiratory tract infection of patient after 48 hrs by EUCAST broth dilution method; conditions: isolate CM-4213, 48 h
[33] = tested on: Aspergillus tubingensis; experiment: Antifungal activity against Aspergillus tubingensis isolate CM-4899 obtained from respiratory tract infection of patient after 48 hrs by EUCAST broth dilution method; conditions: isolate CM-4899, 48 h
[34] = tested on: Aspergillus foetidus; experiment: Antifungal activity against Aspergillus foetidus isolate CM-4995 obtained from prosthesis after 48 hrs by EUCAST broth dilution method; conditions: isolate CM-4995, 48 h

Row | Compound | MIC [1] [µg/mL] | MIC [2] [µg/mL] | MIC [3] [µg/mL] | MIC [4] [µg/mL] | MIC [5] [µg/mL] | MIC [6] [µg/mL] | MIC [7] [µg/mL] | MIC [8] [µg/mL] | MIC [9] [µg/mL] | MIC [10] [µg/mL] | MIC [11] [µg/mL] | MIC [12] [µg/mL] | MIC [13] [µg/mL] | MIC [14] [µg/mL] | MIC [15] [µg/mL] | MIC [16] [µg/mL] | MIC [17] [µg/mL] | MIC [18] [µg/mL] | MIC [19] [µg/mL] | MIC [20] [µg/mL] | further results
1 | C[C@@H]1[C@H](O)[C@@H](C)/C=C/C=C/C=C/C=C/C=C/C=C/C=C/[C@H](O[C@@H]2O[C@H](C)[C@@H](O)[C@H](N)[C@@H]2O)C[C@@H]2O[C@](O)(C[C@@H](O)C[C@@H](O)[C@H](O)CC[C@@H](O)C[C@@H](O)CC(=O)O[C@H]1C)C[C@H](O)[C@H]2C(=O)O [AMPHOTERICIN B] | 0.19 (≈ 0.206 µM) | 0.19 (≈ 0.206 µM) | 0.19 (≈ 0.206 µM) | 0.19 (≈ 0.206 µM) | 0.25 (≈ 0.271 µM) | 0.12 (≈ 0.13 µM) | 0.16 (≈ 0.173 µM) | 0.25 (≈ 0.271 µM) | 0.19 (≈ 0.206 µM) | 0.12 (≈ 0.13 µM) | 0.12 (≈ 0.13 µM) | 0.5 (≈ 0.541 µM) | 0.19 (≈ 0.206 µM) | 0.25 (≈ 0.271 µM) | 0.12 (≈ 0.13 µM) | 0.25 (≈ 0.271 µM) | 0.25 (≈ 0.271 µM) | 0.25 (≈ 0.271 µM) | 0.16 (≈ 0.173 µM) | 0.25 (≈ 0.271 µM) | MIC [21]: 0.19 µg/mL (≈ 0.206 µM); MIC [22]: 0.12 µg/mL (≈ 0.13 µM); MIC [23]: 0.16 µg/mL (≈ 0.173 µM); MIC [24]: 0.21 µg/mL (≈ 0.227 µM); MIC [25]: 0.12 µg/mL (≈ 0.13 µM); MIC [26]: 0.19 µg/mL (≈ 0.206 µM); MIC [27]: 0.12 µg/mL (≈ 0.13 µM); MIC [28]: 0.28 µg/mL (≈ 0.303 µM); MIC [29]: 0.25 µg/mL (≈ 0.271 µM); MIC [30]: 0.25 µg/mL (≈ 0.271 µM); MIC [31]: 0.12 µg/mL (≈ 0.13 µM); MIC [32]: 0.33 µg/mL (≈ 0.357 µM); MIC [33]: 0.16 µg/mL (≈ 0.173 µM); MIC [34]: 0.21 µg/mL (≈ 0.227 µM)
2 | CCC(C)n1ncn(-c2ccc(N3CCN(c4ccc(OCC5COC(Cn6cncn6)(c6ccc(Cl)cc6Cl)O5)cc4)CC3)cc2)c1=O (stereo not drawn) [ITRACONAZOLE] | 0.5 (≈ 0.709 µM) | 0.5 (≈ 0.709 µM) | 0.5 (≈ 0.709 µM) | 1 (≈ 1.42 µM) | 1 (≈ 1.42 µM) | 0.5 (≈ 0.709 µM) | 1 (≈ 1.42 µM) | 1 (≈ 1.42 µM) | 0.5 (≈ 0.709 µM) | 16 (≈ 22.7 µM) | 16 (≈ 22.7 µM) | 4.75 (≈ 6.73 µM) | 1 (≈ 1.42 µM) | 1 (≈ 1.42 µM) | 0.5 (≈ 0.709 µM) | 4 (≈ 5.67 µM) | 1 (≈ 1.42 µM) | 0.5 (≈ 0.709 µM) | 1 (≈ 1.42 µM) | 0.5 (≈ 0.709 µM) | MIC [21]: 0.5 µg/mL (≈ 0.709 µM); MIC [22]: 0.75 µg/mL (≈ 1.06 µM); MIC [23]: 1 µg/mL (≈ 1.42 µM); MIC [24]: 3.67 µg/mL (≈ 5.2 µM); MIC [25]: 16 µg/mL (≈ 22.7 µM); MIC [26]: 0.5 µg/mL (≈ 0.709 µM); MIC [27]: 0.5 µg/mL (≈ 0.709 µM); MIC [28]: 1 µg/mL (≈ 1.42 µM); MIC [29]: 0.5 µg/mL (≈ 0.709 µM); MIC [30]: 11 µg/mL (≈ 15.6 µM); MIC [31]: 0.5 µg/mL (≈ 0.709 µM); MIC [32]: 0.14 µg/mL (≈ 0.198 µM); MIC [33]: 1 µg/mL (≈ 1.42 µM); MIC [34]: 1 µg/mL (≈ 1.42 µM)
